Assay results as given in patent US5968910A, “Compositions containing two or three inhibitors of different HIV reverse transcriptases” (priority 1994, dated 1999).
In brackets after ≈: the same amount, converted by molar mass. Where two headings read alike, the source gives them in different places.

Experiments:
HIV-1/II(0.1) 100-Ile = assay: Sensitivity of mutant HIV-1 strain in CEM cell cultures; format: cell-based; conditions: Table 5
Protocol: (§1) CEM cells were suspended at 250,000 cells per ml of culture medium and infected with wild-type HIV-I(IIIB) or mutant HIV-1 strains at 100 50% cell culture infective doses per ml. Then 100 μl of the infected cell suspensions was added to 200-μl microtiter plate wells containing 100 μl of an appropriate dilution of the test compounds. After 4 days incubation at 37° C., the cell cultures were examined for syncytium formation.

HIV-1/IV(0.1) 103-Thr = assay: as above; format: cell-based; conditions: Table 5
Protocol: as §1

[1] = tested on: HIV-1/TSAO-m^3 T (138-Lys); assay: as above; format: cell-based; conditions: CEM cells, Table 1
Protocol: as §1

HIV-1/Pyr (181-Cys) = assay: as above; format: cell-based; conditions: CEM cells, Table 1
Protocol: as §1

HIV-1/B 101Glu = assay: as above; format: cell-based; conditions: Table 5
Protocol: as §1

[2] = tested on: HIV-1/TIBO R82150 (100-Ile); assay: as above; format: cell-based; conditions: CEM cells, Table 1
Protocol: as §1

HIV-1/I(0.1) 103-Asn = assay: as above; format: cell-based; conditions: Table 5
Protocol: as §1

HIV-1/III(0.1) 103-Asn = assay: as above; format: cell-based; conditions: Table 5
Protocol: as §1

[3] = tested on: HIV-1/TIBO R82913 (103-Asn); assay: as above; format: cell-based; conditions: CEM cells, Table 1
Protocol: as §1

HIV-1/V(0.5) 103-Asn = assay: as above; format: cell-based; conditions: Table 5
Protocol: as §1

[4] = tested on: HIV-1/V(0.1) 101-Ile + 141-Glu; assay: as above; format: cell-based; conditions: Table 5
Protocol: as §1

HIV-1/Nev (106-Ala) = assay: as above; format: cell-based; conditions: CEM cells, Table 1
Protocol: as §1

HIV-1 RT (WT) = HIV-1 RT (WT) (Human immunodeficiency virus type 1 group M subtype B, UniProt P03366); assay: biochemical; conditions: IC50, anti-HIV-1 RT (WT) activity
Protocol: The reaction mixture (50 μl) contained 50 mM Tris.HCl, pH 7.8, 5 mM dithiothreitol, […] glutathione, 500 μM EDTA, 150 mM KCl, 5 mM MgCl2, 1.25 μg of bovine serum albumin, a fixed concentration of the labeled substrate [2,8-^3 H]dGTP (2.95 μM, 2 μCi), a fixed concentration of the template/primer poly(C).oligo(dG) (0.1 mM), 0.06% Triton X-100, 5 μl of inhibitor solution [containing various concentrations (5-fold dilutions) of the test compounds], and 5 μl of the RT preparation. The reaction mixtures were incubated at 37° C. for 30 min, at which time 100 μl of calf thymus DNA (150 μg/ml), 2 ml of Na4 P2 07 (0.1 M in 1M HCl), and 2 ml of trichloroacetic acid (10%, v/v) were added. The solutions were kept on ice for 30 min, after which the acid-insoluble material was washed and analyzed for radioactivity.
Compounds I, III, IV and V were evaluated for their inhibitory effect on recombinant HIV-1 RT.

HIV-1(IIIB) (WT) = assay: microbe, parasite or virus in culture; format: cell-based; conditions: Human immunodeficiency virus 1, IIIB, CCRF-CEM
Protocol: as §1

HIV-1(IIIB) = assay: Knock-out concentrations: breakthrough of HIV-1(IIIB)-induced cytopathicity in CEM cell cultures; format: cell-based
Protocol: The culture medium consisted of RPMI 1640 containing 10% fetal bovine serum, 2 mM L-glutamine, and 0.075% NaHCO3. The multiplicity of the initial infection was ~1000 times the CCID50 (50% cell culture infective dose). Passages were performed every 3 to 4 days by adding 0.5 to 1.0 ml of the infected culture supernatant to 5 ml of a suspension containing 4×10^5 uninfected CEM cells per ml. Syncytium formation was used as a parameter of virus breakthrough in the cell cultures. In the drug combination experiments, the compounds were combined at the same initial concentrations as used for the two lowest concentrations in the single-drug experiments.
The drug concentrations were kept constant throughout the whole time period of the experiment (10 subcultivations or 35 days). Then the drugs were removed from the cell cultures, and the cells were further subcultured for at least 5 additional passages.

[5] = Human immunodeficiency virus 1, CCRF-CEM, read-out: EC50
[6] = Human immunodeficiency virus 1, CCRF-CEM, read-out: 50% Effective Concentration
[7] = CEM cells, Table 1, read-out: 50% Effective Concentration
[8] = HIV-1 (III8), Table 5, read-out: EC50

## CCc1cc(NCc2nc3c(Cl)ccc(Cl)c3o2)c(O)nc1C [Pyridinone L-697,661, 3-{[(4,7-dichloro-1,3-benzoxazol-2-yl)methyl]amino}-5-ethyl-6-methylpyridin-2(1H)-one, reference compound]
HIV-1/II(0.1) 100-Ile; [5]
  EC50: 0.63 µg/mL (≈ 1.79 µM)
HIV-1/IV(0.1) 103-Thr; [5]
  EC50: 0.5 µg/mL (≈ 1.42 µM)
[1]; [6]
  EC50: 0.17 µg/mL (≈ 0.483 µM)
HIV-1/Pyr (181-Cys); [6]
  EC50: 3.67 µg/mL (≈ 10.4 µM)
HIV-1/B 101Glu; [5]
  EC50: 0.035 µg/mL (≈ 0.0994 µM)
[2]; [6]
  EC50: 0.18 µg/mL (≈ 0.511 µM)
HIV-1/I(0.1) 103-Asn; [5]
  EC50: 0.3 µg/mL (≈ 0.852 µM)
HIV-1/III(0.1) 103-Asn; [5]
  EC50: 0.03 µg/mL (≈ 0.0852 µM)
[3]; [6]
  EC50: 0.5 µg/mL (≈ 1.42 µM)
HIV-1/V(0.5) 103-Asn; [5]
  EC50: 0.55 µg/mL (≈ 1.56 µM)
[4]; [5]
  EC50: 0.08 µg/mL (≈ 0.227 µM)
HIV-1/Nev (106-Ala); [6]
  EC50: 0.24 µg/mL (≈ 0.681 µM)
HIV-1 RT (WT)
  IC50: 1.08 µM
HIV-1(IIIB) (WT); [7]
  EC50: 0.007 µg/mL (≈ 0.0199 µM)
HIV-1(IIIB) (WT); [8]
  EC50: 0.007 µg/mL (≈ 0.0199 µM)

## Cc1ccnc2c1NC(=O)c1cccnc1N2C1CC1 [Nevirapine, reference compound]
HIV-1(IIIB); 0.1 μg/ml, day 4 post infection
  HIV-1-induced cytopathicity in cell culture: 37.5 percentage of control
HIV-1(IIIB); 0.1 μg/ml, day 8 post infection
  HIV-1-induced cytopathicity in cell culture: 87.5 percentage of control
HIV-1(IIIB); 0.1 μg/ml, day 11 post infection
  HIV-1-induced cytopathicity in cell culture: 100 percentage of control
HIV-1(IIIB); 0.1 μg/ml, day 14 post infection
  HIV-1-induced cytopathicity in cell culture: 100 percentage of control
HIV-1(IIIB); 0.1 μg/ml, day 17 post infection
  HIV-1-induced cytopathicity in cell culture: 100 percentage of control
HIV-1(IIIB); 0.1 μg/ml, day 21 post infection
  HIV-1-induced cytopathicity in cell culture: 100 percentage of control
HIV-1(IIIB); 0.1 μg/ml, day 25 post infection
  HIV-1-induced cytopathicity in cell culture: 100 percentage of control
HIV-1(IIIB); 0.1 μg/ml, day 28 post infection
  HIV-1-induced cytopathicity in cell culture: 100 percentage of control
HIV-1(IIIB); 0.1 μg/ml, day 32 post infection
  HIV-1-induced cytopathicity in cell culture: 100 percentage of control
HIV-1(IIIB); 0.1 μg/ml, day 35 post infection
  HIV-1-induced cytopathicity in cell culture: 100 percentage of control
HIV-1(IIIB); 0.1 μg/ml, day 39 post infection, compound absent from day 35
  HIV-1-induced cytopathicity in cell culture: 100 percentage of control
HIV-1(IIIB); 0.1 μg/ml, day 42 post infection, compound absent from day 35
  HIV-1-induced cytopathicity in cell culture: 100 percentage of control
HIV-1(IIIB); 0.1 μg/ml, day 46 post infection, compound absent from day 35
  HIV-1-induced cytopathicity in cell culture: 100 percentage of control
HIV-1(IIIB); 0.1 μg/ml, day 49 post infection, compound absent from day 35
  HIV-1-induced cytopathicity in cell culture: 100 percentage of control
HIV-1(IIIB); 0.1 μg/ml, day 53 post infection, compound absent from day 35
  HIV-1-induced cytopathicity in cell culture: 100 percentage of control
HIV-1(IIIB); 0.5 μg/ml, day 4 post infection
  HIV-1-induced cytopathicity in cell culture: 6.25 percentage of control
HIV-1(IIIB); 0.5 μg/ml, day 8 post infection
  HIV-1-induced cytopathicity in cell culture: 25 percentage of control
HIV-1(IIIB); 0.5 μg/ml, day 11 post infection
  HIV-1-induced cytopathicity in cell culture: 50 percentage of control
HIV-1(IIIB); 0.5 μg/ml, day 14 post infection
  HIV-1-induced cytopathicity in cell culture: 100 percentage of control
HIV-1(IIIB); 0.5 μg/ml, day 17 post infection
  HIV-1-induced cytopathicity in cell culture: 100 percentage of control
HIV-1(IIIB); 0.5 μg/ml, day 21 post infection
  HIV-1-induced cytopathicity in cell culture: 100 percentage of control
HIV-1(IIIB); 0.5 μg/ml, day 25 post infection
  HIV-1-induced cytopathicity in cell culture: 100 percentage of control
HIV-1(IIIB); 0.5 μg/ml, day 28 post infection
  HIV-1-induced cytopathicity in cell culture: 100 percentage of control
HIV-1(IIIB); 0.5 μg/ml, day 32 post infection
  HIV-1-induced cytopathicity in cell culture: 100 percentage of control
HIV-1(IIIB); 0.5 μg/ml, day 35 post infection
  HIV-1-induced cytopathicity in cell culture: 100 percentage of control
HIV-1(IIIB); 0.5 μg/ml, day 39 post infection, compound absent from day 35
  HIV-1-induced cytopathicity in cell culture: 100 percentage of control
HIV-1(IIIB); 0.5 μg/ml, day 42 post infection, compound absent from day 35
  HIV-1-induced cytopathicity in cell culture: 100 percentage of control
HIV-1(IIIB); 0.5 μg/ml, day 46 post infection, compound absent from day 35
  HIV-1-induced cytopathicity in cell culture: 100 percentage of control
HIV-1(IIIB); 0.5 μg/ml, day 49 post infection, compound absent from day 35
  HIV-1-induced cytopathicity in cell culture: 100 percentage of control
HIV-1(IIIB); 0.5 μg/ml, day 53 post infection, compound absent from day 35
  HIV-1-induced cytopathicity in cell culture: 100 percentage of control
HIV-1(IIIB); 2.5 μg/ml, day 4 post infection
  HIV-1-induced cytopathicity in cell culture: 0 percentage of control
HIV-1(IIIB); 2.5 μg/ml, day 8 post infection
  HIV-1-induced cytopathicity in cell culture: 0 percentage of control
HIV-1(IIIB); 2.5 μg/ml, day 11 post infection
  HIV-1-induced cytopathicity in cell culture: 6.25 percentage of control
HIV-1(IIIB); 2.5 μg/ml, day 14 post infection
  HIV-1-induced cytopathicity in cell culture: 25 percentage of control
HIV-1(IIIB); 2.5 μg/ml, day 17 post infection
  HIV-1-induced cytopathicity in cell culture: 62.5 percentage of control
HIV-1(IIIB); 2.5 μg/ml, day 21 post infection
  HIV-1-induced cytopathicity in cell culture: 100 percentage of control
HIV-1(IIIB); 2.5 μg/ml, day 25 post infection
  HIV-1-induced cytopathicity in cell culture: 100 percentage of control
HIV-1(IIIB); 2.5 μg/ml, day 28 post infection
  HIV-1-induced cytopathicity in cell culture: 100 percentage of control
HIV-1(IIIB); 2.5 μg/ml, day 32 post infection
  HIV-1-induced cytopathicity in cell culture: 100 percentage of control
HIV-1(IIIB); 2.5 μg/ml, day 35 post infection
  HIV-1-induced cytopathicity in cell culture: 100 percentage of control
HIV-1(IIIB); 2.5 μg/ml, day 39 post infection, compound absent from day 35
  HIV-1-induced cytopathicity in cell culture: 100 percentage of control
HIV-1(IIIB); 2.5 μg/ml, day 42 post infection, compound absent from day 35
  HIV-1-induced cytopathicity in cell culture: 100 percentage of control
HIV-1(IIIB); 2.5 μg/ml, day 46 post infection, compound absent from day 35
  HIV-1-induced cytopathicity in cell culture: 100 percentage of control
HIV-1(IIIB); 2.5 μg/ml, day 49 post infection, compound absent from day 35
  HIV-1-induced cytopathicity in cell culture: 100 percentage of control
HIV-1(IIIB); 2.5 μg/ml, day 53 post infection, compound absent from day 35
  HIV-1-induced cytopathicity in cell culture: 100 percentage of control
HIV-1/II(0.1) 100-Ile
  EC50: ≥ 5 µg/mL
HIV-1/IV(0.1) 103-Thr
  EC50: 2.7 µg/mL (≈ 10.1 µM)
[1]
  50% Effective Concentration: 0.030 µg/mL
HIV-1/Pyr (181-Cys)
  50% Effective Concentration: 2.30 µg/mL
HIV-1/B 101Glu
  EC50: > 2.5 µg/mL
[2]
  50% Effective Concentration: 0.100 µg/mL
HIV-1/I(0.1) 103-Asn
  EC50: 1.7 µg/mL (≈ 6.38 µM)
HIV-1/III(0.1) 103-Asn
  EC50: 0.38 µg/mL (≈ 1.43 µM)
[3]
  50% Effective Concentration: 1.5 µg/mL
HIV-1/V(0.5) 103-Asn
  EC50: ≥ 5 µg/mL
[4]
  EC50: 0.24 µg/mL (≈ 0.901 µM)
HIV-1/Nev (106-Ala)
  50% Effective Concentration: 2.3 µg/mL
HIV-1(IIIB) (WT); [7]
  EC50: 0.007 µg/mL (≈ 0.0263 µM)
HIV-1(IIIB) (WT); [8]
  EC50: 0.007 µg/mL (≈ 0.0263 µM)
